Read-outs that look alike come from different tables or passages of the source. Starred links: 1 amine or outer side, 2 acyl side, 3 side chain; linkers in the order of their positions; H or OH if unused. Non-standard residues stand in square brackets, D forms with d. Residues, ends and D or L forms follow the SMILES beside them. *: point of attachment. X1 = Cc1cc(F)cc(-c2cnc(NCCNC(=O)CCOCCC(=O)*)c(-c3nc4ccc(Cl)cc4[nH]3)c2N2CCC(N)CC2)c1; X3 = Cc1cc(F)cc(-c2cnc(NCCN*)c(-c3nc4ccc(Cl)cc4[nH]3)c2N2CCC(N)CC2)c1; Dolaproine = CO[C@@H]([C@@H]1CCCN1)[C@@H](C)C(=O)O; Dil = CC[C@H](C)[C@H](NC)[C@@H](CC(=O)O)OC; PABC = O=C(OCc1ccc(N[*:1])cc1)[*:2]; Glutaryl = O=C(CCCC(=O)[*:2])[*:1]; X2 = C[C@@H](N*)[C@@H](O)c1ccccc1; Cya = N[C@@H](CS(=O)(=O)O)C(=O)O; dCya = N[C@H](CS(=O)(=O)O)C(=O)O; Cit = NC(=O)NCCC[C@H](N)C(=O)O; NMeV = CN[C@H](C(=O)O)C(C)C; Sar = CNCC(=O)O
How the values were obtained:
Type in all cases: cell-based
SST2 = molecular target: T1, SST2 (Homo sapiens, UniProt P30874); test: PathHunter CHO-K1 SST2 internalization assay; conditions: PathHunter CHO-K1 SST2, 90 min
T1 construct: host or cells: PathHunter CHO-K1 SST2 cells
Summary of the method: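 IC50 comes from four-parameter curves on background-corrected duplicates of Beta-Glo luminescence, read after 60 min at room temperature in the dark. Before that, CHO-K1 SST2 internalization cells (48 h post-seeding) received SMDC as eleven threefold dilutions, 10 uM highest final, for 90 min at 37 C.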

[1] = system: NCI-H524 (ATCC) human small cell lung cancer cells
Summary of the method: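 CellTiter-Glo luminescence after a 2 h SMDC pulse (top dose 1 uM, 2-fold dilutions, 11 points), medium wash, then 70 h recovery. Cells were seeded at 5,000/well and dosed 24 h later. % inhibition vs control gave IC50 via four-parameter fit.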

[2] = molecular target: T2, human somatostatin receptor subtype 2 (Homo sapiens, UniProt P30874); test: Functional cAMP assay for SSTR2 agonists (HTRF) in CHO-K1 cells; conditions: CHO-K1 cells stably expressing human SST2, 20 min
T2 construct: expressed in transfected cells
Summary of the method: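 Agonism scored as loss of NKH477 (1.6 μM)-driven cAMP, with IBMX present, after 20 min, 37° C. exposure of stably transfected CHO-K1 cells to compound dilutions (typically 0-10,000 nM). Lysates read by time-resolved FRET; cAMP interpolated from standard curve and EC50 derived.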

T1 sequence (P30874 whole entry): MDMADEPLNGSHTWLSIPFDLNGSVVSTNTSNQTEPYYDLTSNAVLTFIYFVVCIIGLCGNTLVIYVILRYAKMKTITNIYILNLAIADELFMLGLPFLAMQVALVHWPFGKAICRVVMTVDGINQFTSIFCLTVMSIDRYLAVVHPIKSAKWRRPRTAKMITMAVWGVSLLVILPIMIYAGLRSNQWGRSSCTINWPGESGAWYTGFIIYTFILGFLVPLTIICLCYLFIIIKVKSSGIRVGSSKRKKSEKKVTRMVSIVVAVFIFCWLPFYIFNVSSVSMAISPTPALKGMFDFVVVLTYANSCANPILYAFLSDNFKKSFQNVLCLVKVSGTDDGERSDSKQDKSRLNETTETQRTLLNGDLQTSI
T2 sequence (P30874 whole entry): as above

## CC[C@@]1(O)C(=O)OCc2c1cc1n(c2=O)Cc2c-1nc1cc(F)c(C)c3c1c2[C@@H](NC(=O)OCc1ccc(NC(=O)[C@H](CCCNC(N)=O)NC(=O)[C@@H](NC(=O)[C@H](CCC(=O)O)NC(=O)CCOCCC(=O)NCCNc2ncc(-c4cc(C)cc(F)c4)c(N4CCC(N)CC4)c2-c2nc4ccc(Cl)cc4[nH]2)C(C)C)cc1C(=O)NCCN)CC3 [Compound 94]
SST2; Internalization EC50 (nM)
  EC50: 2.4 nM
[1]; 2 h treatment, washout, additional 70 h, read-out: H524 EC50
  EC50: 260 nM
[2]; hSST2 cAMP Avg EC50 (nM)
  EC50: 0.16 nM

## CC[C@H](C)[C@@H]([C@@H](CC(=O)N1CCC[C@H]1[C@H](OC)[C@@H](C)C(=O)N[C@H](C)[C@@H](O)c1ccccc1)OC)N(C)C(=O)[C@@H](NC(=O)[C@H](C(C)C)N(C)C(=O)OCc1ccc(NC(=O)[C@H](CCCNC(N)=O)NC(=O)[C@@H](NC(=O)CCCC(=O)N(C)CC(=O)NCCNc2ncc(-c3cc(C)cc(F)c3)c(N3CCC(N)CC3)c2-c2nc3ccc(Cl)cc3[nH]2)C(C)C)cc1)C(C)C [Compound 95] ({X3-Sar-Glutaryl}-V[Cit][PABC][NMeV]V[Dil][Dolaproine]-X2)
SST2; read-out: Internalization EC50
  EC50: 2.2 nM
[1]; 2 h
  EC50: 5.1 nM
[2]; read-out: hSST2 cAMP Avg EC50
  EC50: 0.26 nM

## CC[C@H](C)[C@@H]([C@@H](CC(=O)N1CCC[C@H]1[C@H](OC)[C@@H](C)C(=O)N[C@H](C)[C@@H](O)c1ccccc1)OC)N(C)C(=O)[C@@H](NC(=O)[C@H](C(C)C)N(C)C(=O)OCc1ccc(NC(=O)[C@H](CCCNC(N)=O)NC(=O)[C@@H](NC(=O)CCCC(=O)N(C)CC(=O)N(C)CC(=O)N(C)CC(=O)NCCNc2ncc(-c3cc(C)cc(F)c3)c(N3CCC(N)CC3)c2-c2nc3ccc(Cl)cc3[nH]2)C(C)C)cc1)C(C)C [Compound 96] ({X3-Sar-Sar-Sar-Glutaryl}-V[Cit][PABC][NMeV]V[Dil][Dolaproine]-X2)
SST2; read-out: Internalization EC50
  EC50: 4.9 nM
[1]; 2 h
  EC50: 21 nM
[2]; read-out: hSST2 cAMP Avg EC50
  EC50: 0.47 nM

## CC[C@H](C)[C@@H]([C@@H](CC(=O)N1CCC[C@H]1[C@H](OC)[C@@H](C)C(=O)N[C@H](C)[C@@H](O)c1ccccc1)OC)N(C)C(=O)[C@@H](NC(=O)[C@H](C(C)C)N(C)C(=O)OCc1ccc(NC(=O)[C@H](CCCNC(N)=O)NC(=O)[C@@H](NC(=O)CCCC(=O)N(C)CC(=O)N(C)CC(=O)N(C)CC(=O)N(C)CC(=O)N(C)CC(=O)NCCNc2ncc(-c3cc(C)cc(F)c3)c(N3CCC(N)CC3)c2-c2nc3ccc(Cl)cc3[nH]2)C(C)C)cc1)C(C)C [Compound 97]
SST2; read-out: Internalization EC50
  EC50: 4.5 nM
[1]; 2 h
  EC50: 35 nM
[2]; read-out: hSST2 cAMP Avg EC50
  EC50: 0.3 nM

## CC[C@H](C)[C@@H]([C@@H](CC(=O)N1CCC[C@H]1[C@H](OC)[C@@H](C)C(=O)N[C@H](C)[C@@H](O)c1ccccc1)OC)N(C)C(=O)[C@@H](NC(=O)[C@H](C(C)C)N(C)C(=O)OCc1ccc(NC(=O)[C@H](CCCNC(N)=O)NC(=O)[C@@H](NC(=O)[C@H](CCC(=O)O)NC(=O)[C@H](CCC(=O)O)NC(=O)CCOCCC(=O)NCCNc2ncc(-c3cc(C)cc(F)c3)c(N3CCC(N)CC3)c2-c2nc3ccc(Cl)cc3[nH]2)C(C)C)cc1)C(C)C [Compound 98] (X1-EEV[Cit][PABC][NMeV]V[Dil][Dolaproine]-X2)
SST2; read-out: Internalization EC50
  EC50: 2.9 nM
[1]; 2 h
  EC50: 120 nM
[2]; read-out: hSST2 cAMP Avg EC50
  EC50: 0.25 nM

## CC[C@H](C)[C@@H]([C@@H](CC(=O)N1CCC[C@H]1[C@H](OC)[C@@H](C)C(=O)N[C@H](C)[C@@H](O)c1ccccc1)OC)N(C)C(=O)[C@@H](NC(=O)[C@H](C(C)C)N(C)C(=O)OCc1ccc(NC(=O)[C@H](CCCNC(N)=O)NC(=O)[C@@H](NC(=O)[C@H](CS(=O)(=O)O)NC(=O)CCOCCC(=O)NCCNc2ncc(-c3cc(C)cc(F)c3)c(N3CCC(N)CC3)c2-c2nc3ccc(Cl)cc3[nH]2)C(C)C)cc1C(=O)NCCN)C(C)C [Compound 99]
SST2; read-out: Internalization EC50
  EC50: 2.8 nM
[1]; 2 h
  EC50: 4.6 nM
[2]; read-out: hSST2 cAMP Avg EC50
  EC50: 0.19 nM

## CC[C@H](C)[C@@H]([C@@H](CC(=O)N1CCC[C@H]1[C@H](OC)[C@@H](C)C(=O)N[C@H](C)[C@@H](O)c1ccccc1)OC)N(C)C(=O)[C@@H](NC(=O)[C@H](C(C)C)N(C)C(=O)OCc1ccc(NC(=O)[C@H](CCCNC(N)=O)NC(=O)[C@@H](NC(=O)[C@H](CS(=O)(=O)O)NC(=O)CCOCCOCCOCCOCCC(=O)NCCNc2ncc(-c3cc(C)cc(F)c3)c(N3CCC(N)CC3)c2-c2nc3ccc(Cl)cc3[nH]2)C(C)C)cc1C(=O)NCCN)C(C)C [Compound 100]
SST2; read-out: Internalization EC50
  EC50: 3.3 nM
[1]; 2 h
  EC50: 6.4 nM
[2]; read-out: hSST2 cAMP Avg EC50
  EC50: 0.14 nM

## CC[C@H](C)[C@@H]([C@@H](CC(=O)N1CCC[C@H]1[C@H](OC)[C@@H](C)C(=O)N[C@H](C)[C@@H](O)c1ccccc1)OC)N(C)C(=O)[C@@H](NC(=O)[C@H](C(C)C)N(C)C(=O)OCc1ccc(NC(=O)[C@H](CCCNC(N)=O)NC(=O)[C@@H](NC(=O)[C@@H](CCC(=O)O)NC(=O)CCOCCC(=O)NCCNc2ncc(-c3cc(C)cc(F)c3)c(N3CCC(N)CC3)c2-c2nc3ccc(Cl)cc3[nH]2)C(C)C)cc1C(=O)NCCN)C(C)C [Compound 101]
SST2; read-out: Internalization EC50
  EC50: 6.7 nM
[1]; 2 h
  EC50: 34 nM
[2]; read-out: hSST2 cAMP Avg EC50
  EC50: 0.22 nM

## CC[C@H](C)[C@@H]([C@@H](CC(=O)N1CCC[C@H]1[C@H](OC)[C@@H](C)C(=O)N[C@H](C)[C@@H](O)c1ccccc1)OC)N(C)C(=O)[C@@H](NC(=O)[C@H](C(C)C)N(C)C(=O)OCc1ccc(NC(=O)[C@H](CCCNC(N)=O)NC(=O)[C@@H](NC(=O)[C@@H](CCC(=O)O)NC(=O)CCOCCC(=O)NCCNc2ncc(-c3cc(C)cc(F)c3)c(N3CCC(N)CC3)c2-c2nc3ccc(Cl)cc3[nH]2)C(C)C)cc1)C(C)C [Compound 102] (X1-[dE]V[Cit][PABC][NMeV]V[Dil][Dolaproine]-X2)
SST2; read-out: Internalization EC50
  EC50: 19 nM
[1]; 2 h
  EC50: 130 nM
[2]; read-out: hSST2 cAMP Avg EC50
  EC50: 0.067 nM

## CC[C@H](C)[C@@H]([C@@H](CC(=O)N1CCC[C@H]1[C@H](OC)[C@@H](C)C(=O)N[C@H](C)[C@@H](O)c1ccccc1)OC)N(C)C(=O)[C@@H](NC(=O)[C@H](C(C)C)N(C)C(=O)OCc1ccc(NC(=O)[C@H](CCCNC(N)=O)NC(=O)[C@@H](NC(=O)[C@@H](CCC(=O)O)NC(=O)[C@@H](CCC(=O)O)NC(=O)CCOCCC(=O)NCCNc2ncc(-c3cc(C)cc(F)c3)c(N3CCC(N)CC3)c2-c2nc3ccc(Cl)cc3[nH]2)C(C)C)cc1)C(C)C [Compound 103] (X1-[dE][dE]V[Cit][PABC][NMeV]V[Dil][Dolaproine]-X2)
SST2; read-out: Internalization EC50
  EC50: 24 nM
[1]; 2 h
  EC50: 620 nM
[2]; read-out: hSST2 cAMP Avg EC50
  EC50: 0.26 nM

## CC[C@H](C)[C@@H]([C@@H](CC(=O)N1CCC[C@H]1[C@H](OC)[C@@H](C)C(=O)N[C@H](C)[C@@H](O)c1ccccc1)OC)N(C)C(=O)[C@@H](NC(=O)[C@H](C(C)C)N(C)C(=O)OCc1ccc(NC(=O)[C@H](CCCNC(N)=O)NC(=O)[C@@H](NC(=O)[C@@H](CS(=O)(=O)O)NC(=O)CCOCCC(=O)NCCNc2ncc(-c3cc(C)cc(F)c3)c(N3CCC(N)CC3)c2-c2nc3ccc(Cl)cc3[nH]2)C(C)C)cc1)C(C)C [Compound 104] (X1-[dCya]V[Cit][PABC][NMeV]V[Dil][Dolaproine]-X2)
SST2; read-out: Internalization EC50
  EC50: 2.8 nM
[1]; 2 h
  EC50: 24 nM
[2]; read-out: hSST2 cAMP Avg EC50
  EC50: 0.062 nM

## CC[C@H](C)[C@@H]([C@@H](CC(=O)N1CCC[C@H]1[C@H](OC)[C@@H](C)C(=O)N[C@H](C)[C@@H](O)c1ccccc1)OC)N(C)C(=O)[C@@H](NC(=O)[C@H](C(C)C)N(C)C(=O)OCc1ccc(NC(=O)[C@H](CCCNC(N)=O)NC(=O)[C@@H](NC(=O)[C@H](CS(=O)(=O)O)NC(=O)[C@H](CCC(=O)O)NC(=O)CCOCCC(=O)NCCNc2ncc(-c3cc(C)cc(F)c3)c(N3CCC(N)CC3)c2-c2nc3ccc(Cl)cc3[nH]2)C(C)C)cc1)C(C)C [Compound 105] (X1-E[Cya]V[Cit][PABC][NMeV]V[Dil][Dolaproine]-X2)
SST2; read-out: Internalization EC50
  EC50: 14 nM
[1]; 2 h
  EC50: 290 nM
[2]; read-out: hSST2 cAMP Avg EC50
  EC50: 0.18 nM

— patent publication US12134610B2, “Somatostatin subtype-2 receptor (SST2R) targeted therapeutics and uses thereof” (priority 2022, dated 2024)
